# Results taken from US20200407382A1, “POLYMORPHIC FORMS OF (9-[(R)-2-[[(S)-[[(S)-1-(ISOPROPOXYCARBONYL)ETHYL]AMINO]PHENOXY PHOSPHINYL]METHOXY]PROPYL] ADENINE AND PHARMACEUTICALLY ACCEPTABLE SALTS THEREOF” (CIPLA LIMITED, priority 2017, published 2020).
# Protocol: FIG. 10 illustrates a dynamic vapor sorption (DVS) isotherm profile of Form C4 of (9-[(R)-2-[[(S)-[[(S)-1-(isopropoxycarbonyl)ethyl]amino] phenoxyphosphinyl] methoxy]propyl] adenine hemifumarate , according to another embodiment. For the DVS measurement a sample of crystalline Form C4 was cycled through changing humidity conditions to determine its hygroscopicity. The sample was analyzed using a Surface Measurement System DVS-1 Dynamic Vapor Sorption System. About 100 mg of crystalline Form C4 was placed into a mesh vapor sorption balance pan and loaded into a dynamic vapor sorption balance as part of the
# Surface Measurement System. Data was collected in 1-minute intervals. Nitrogen was used as the carrier gas. The sampled crystalline Form C4 was subjected to a ramping profile from 0-95% relative humidity (RH) at 5 and 10% increments, maintaining the sample at each step until a stable weight had been achieved (99.5% step completion). After completion of the Sorption cycle, the sample was dried using the same procedure, but all the way down to 95% RH to 30% RH (10% RH interval) and from 30% RH to 5% RH (5% RH interval). The weight change during the Sorption/desorption cycles were plotted, allowing for the hygroscopic nature of the sample to be determined.
# • 1. The hygroscopicity was studied at 25° C. using an SMS DVS intrinsic analyser. • 2. About 100 mg of sample was placed in a tared sample holder at an initial ambient room humidity. • 3. A total wet/dry nitrogen flow rate of 270 cc/min was used throughout the study. • 4. Solids were studied by performing one full cycle of the following program: 300 minutes of drying at 25° C. under dry N2, followed by settings of 0, 5, 10, 15, 20, 25, 30, 40, 50, 60, 70, 80, 90 and 95% RH, with exposure time at each humidity set point dependent upon 99.5% confidence in the F1 fit model or 60 minutes. The maximum time allowed at any one humidity set point was 60 minutes. Followed by decreasing 95% RH to 30% RH (10% RH interval) and from 30% RH to 5% RH (5% RH interval). […]. The sample was maintained under dry N2 after the cycle was completed. • 5. Percent weight gain was calculated based on the dry weight basis.
smiles,measurement,setting,value
"CC(C)OC(=O)[C@H](C)N[P@](=O)(CO[C@H](C)Cn1cnc2c(N)ncnc21)Oc1ccccc1 [Form C4, (9-[(R)-2-[[(S)-[[(S)-1-(isopropoxycarbonyl)ethyl]amino]phenoxyphosphinyl]methoxy]propyl]adenine hemifumarate]",hygroscopicity (DVS isotherm),"25° C., 0-95% RH sorption/desorption cycles",non-hygroscopic
same,hysteresis between sorption and desorption cycles,"DVS, 0-95% RH",very small hysteresis
same,change of crystalline form during DVS (XRPD post DVS vs pre-DVS),XRPD pattern post DVS analysis compared with FIG. 4,no change in the crystalline Form C4
same,increase in mass during the Sorption cycle,"between 0% and 95% RH, 25° C.",about 1.7%
